Laboratory results taken from US8632749B2, “Two photon tracer, method for the preparation thereof and the use thereof in screening anticancer agents” (SNU R&DB Foundation, priority 2009, dated 2014).
Read-outs that look alike come from different tables or passages of the source.

Key:
[1] = system: A549 cells; test: Viability of A549 cells with CCK-8 kit; format: cell-based, human; conditions: 50 μM, 10 min
Procedure: FIG. 7: Viability of A549 cells in the presence of AG2 as measured by using CCK-8 kit. The cells were incubated with 50 μM AG2 for 10 min.
In order to confirm that the tracer couldn't affect the viability of A549 cells in the incubation condition, a CCK-8 kit (Cell Counting Kit-8, Dojindo, Japan) was used according to the manufacturer's protocol.

[2] = One-photon absorption/emission spectra and fluorescence quantum yield; format: physicochemical; conditions: for Φ, fluorescence quantum yield: ±15%; for pH sensitivity of fluorescence: biologically relevant pH range
Procedure: Absorption spectra were recorded on a Hewlett-Packard 8453 diode array spectrophotometer, and fluorescence spectra were obtained with Amico-Bowman series 2 luminescence spectrometer with a 1-cm standard quartz cell. The fluorescence quantum yield was determined by using Coumarin 307 and Rhodamine B as the reference.

[3] = system: Human colon cancer tissue and normal tissue; test: TPM imaging of AG2 uptake in human colon normal and cancer tissue slices
Procedure: In the present invention, an additional assessment was made of the utility of AG2 in tissue imaging for the diagnosis of colon cancer. In this regard, the images of normal- and cancer-tissue slices from colon-cancer patients were employed. […] The tissues were incubated in artificial cerebrospinal fluid (ACSF) for 4 h at 37° C. in the absence and presence of taxol (50 μM), after which AG2 uptake was monitored with TPM by following the change in TPEF at a depth of 100 μm.
Human colon cancer tissue and normal tissue were obtained from colon cancer patients by conducting colonoscopic examinations and taking samples.
Normal tissues, cancerous tissue, and cancerous tissue containing 50 μM taxol were incubated in artificial cerebrospinal fluid (ACSF) bubbled with 95% O2 and 5% CO2 for 4 hrs at 37° C. The tissues were then washed three times with ACSF, transferred to glass-bottomed dishes (MatTek), added with 50 μM AG2, and observed by TPM.
To determine whether the relative uptake was affected by incubation in ACSF, the same experiment was conducted with normal tissue and colon cancerous tissue obtained immediately after the colonoscopic biopsy.

[4] = system: A549 cells; test: Competition experiment for uptake pathway; format: cell-based, human; conditions: for Reduction of AG2 fluorescence intensity in A549 cells: AG2 50 μM, 10 min
Procedure: To determine whether the intracellular uptake pathway of AG2 is relevant to that of D-glucose, a competition experiment was conducted.
To this end, A549 cells were incubated with AG2 (50 μM) for 10 min in the presence of 0, 10, and 50 mM D-glucose, and 50 mM L-glucose, and relative AG2 uptake was determined by TPM.

[5] = system: A549, HeLa, HEK293 and NIH/3T3 cells; test: Relative AG2 uptake by cancer and normal cell lines (TPM); format: cell-based; conditions: A549, HeLa vs HEK293, NIH/3T3
From the text: In order to assess whether AG2 is selectively taken up by cancer cells, the efficiencies of AG2 uptake by A549 (lung carcinoma cell line), HeLa (cervical cancer cell line), HEK293 (human embryonic kidney 293 cell line), and NIH/3T3 (murine fibroblast cell line) cells were compared. […] Therefore, AG2 can be used for visualizing glucose uptake in living cells by TPM, without subjecting the cells to glucose starvation.
(§1) A549 human lung carcinoma cells, HeLa human cervical carcinoma cells, NIH/3T3 murine fibroblast cells, and HEK293 human embryonic kidney cells were obtained from American Type Culture Collection (ATCC, Manassas, Va., USA). A549 cells were cultured in RPMI 1640 (WelGene) supplemented with heat-inactivated 10% FBS (WelGene), penicillin (100 units/mL), and streptomycin (100 μg/mL).
NIH/3T3 cells, HeLa cells, and HEK293 cells were cultured in DMEM (WelGene) supplemented with heat-inactivated 10% FBS (WelGene), penicillin (100 units/mL), and streptomycin (100 μg/mL). All the cell lines were maintained in a humidified atmosphere of 5% CO2 and 95% air at 37° C. […]
(§2) For comparison of the relative uptake of AG1 and AG2 per unit cell, the TPEF intensities from regions of interest were chosen without bias from among 40-60 cells as determined by the photomultiplier tube (PMT) and the data were digitalized using Histogram (a program for data analysis).

[6] = Measurement of two-photon cross section (TPEF method); format: physicochemical; conditions: for Φδmax, two-photon action cross-section / λmax of the two-photon absorption spectrum / δmax, peak two-photon cross-section: PBS buffer; for δmax, peak two-photon cross-section: ±15%
Procedure: The two-photon cross section (δ) was determined using the femto second (fs) fluorescence measurement technique as described previously. AG1, AG2, Cy3-Glc-α, and 2-NBDG were dissolved in 30 mM PBC buffer (137 mM NaCl, 3 mM KCl, 10 mM Na2HPO4, 2 mM KH2PO4, pH 7.4) at a concentration of 5.0×10^−6 M and then the two-photon induced fluorescence intensity was measured at 740-940 nm by using fluorescein (8.0×10^−5 M, pH=11) as the reference, whose two-photon property has already been well characterized. The intensities of the two photon induced fluorescence spectra of the reference and sample emitted at the same excitation wavelength were determined.
The TPA cross section was calculated according to Eq. 1,
The results are shown in FIG. 1 and the above-described Table 1.

[7] = system: A549 cells; test: Tracer uptake by A549 cells, TPM imaging (optimum concentration); format: cell-based; conditions: for Cell death in A549 cells: 100 μM probe, 30 min; for Uptake rate (time) in A549 cells: A549 cells labeled with tracer
Procedure: as §1
For labeling, the growth medium was removed and replaced with serum-free RPMI 1640 (without D-glucose) (United Search Partners, Austin, Tex., USA).
The cells were treated and incubated with the required concentration of a tracker at 37° C. for 10 min.
Thereafter, the cells were washed three times with phosphate buffered saline (PBS; Gibco) and then imaged.
as §2
In determine the optimum concentration for the uptake experiment, TPM images of A549 cells labeled for 30 min with 6, 12.5, 25, 50, and 100 μM of AG1 and AG2 were compared. The image appeared brighter as the probe concentration was increased up to 50 μM; however, at higher concentrations than this, cell death was observed.
Moreover, the uptake rate was faster (600 vs 800 s) and the TPM image was brighter when the cells were labeled with AG2 than when they were treated with AG1 (FIG. 3). Therefore, 50 μM of AG2 was used for the uptake experiments.

[8] = from The Handbook (Molecular Probes); cited from earlier work
[9] = system: A549 cells; test: Effect of anticancer agents on AG2 uptake by A549 cells
[10] = system: A549 cells; conditions: 0.049 µM

Row | Molecule | λ(1)max, one-photon absorption maximum ([2]; DMF (ETN 0.386)) | λflmax, one-photon emission maximum ([2]; DMF (ETN 0.386)) | Φ, fluorescence quantum yield ([2]; DMF (ETN 0.386)) | λ(1)max, one-photon absorption maximum ([2]; Dioxane (ETN 0.164)) | λflmax, one-photon emission maximum ([2]; Dioxane (ETN 0.164)) | Φ, fluorescence quantum yield ([2]; Dioxane (ETN 0.164)) | λ(1)max, one-photon absorption maximum ([2]; EtOH (ETN 0.654)) | λflmax, one-photon emission maximum ([2]; EtOH (ETN 0.654)) | Φ, fluorescence quantum yield ([2]; EtOH (ETN 0.654)) | λ(1)max, one-photon absorption maximum ([2]; H2O (ETN 1.00)) | λflmax, one-photon emission maximum ([2]; H2O (ETN 1.00)) | Φ, fluorescence quantum yield ([2]; H2O (ETN 1.00)) | λ(1)max, one-photon absorption maximum ([2]; PBS buffer) | λflmax, one-photon emission maximum ([2]; PBS buffer) | Φ, fluorescence quantum yield ([2]; PBS buffer) | pH sensitivity of fluorescence [2] | Φδmax, two-photon action cross-section [6] | λmax of the two-photon absorption spectrum [6] | δmax, peak two-photon cross-section [6] | Cell death in A549 cells [7] | further results
1 | CC(=O)c1ccc2cc(N(C)CC(=O)N3CCN(CCOC4OC(CO)C(O)C(O)C4O)CC3)ccc2c1 (centres unmarked) [AG2] | 369 nm | 449 nm | 1.00 | 362 nm | 425 nm | 0.72 | 370 nm | 480 nm | 0.97 | 375 nm | 501 nm | 0.56 | 375 nm | 501 nm | 0.56 | pH insensitive | 88 GM | 780 nm | 155 GM | some cell death was observed | Effect on viability of cells (CCK8 kit) [1]: negligible toxicity; AG2 uptake in cancer tissue versus normal tissue ([3]; colon tissue slices, 50 μM AG2, depth 100 μm): much faster than in the normal tissue; Reduction of AG2 fluorescence intensity in A549 cells ([4]; medium with 10 mM D-glucose vs glucose-depleted medium): about 16%; Reduction of AG2 fluorescence intensity in A549 cells ([4]; medium with 50 mM D-glucose vs glucose-depleted medium): ~74%; AG2 fluorescence intensity in A549 cells ([4]; medium with 50 mM L-glucose): not affected; AG2 uptake by A549 cells ([4]; presence of 55 mM D-/L-alanine): not influenced; Efficiency of AG2 uptake by cell lines [5]: most efficient in A549 and HeLa cells, followed by HEK293 and NIH/3T3 cells; Uptake rate (time) in A549 cells [7]: 600 s
2 | CC(=O)c1ccc2cc(N(C)CC(=O)NCCOCCOCCNCCOC3OC(CO)C(O)C(O)C3O)ccc2c1 (centres unmarked) [AG1] | 366 nm | 451 nm | 1.00 | 360 nm | 434 nm | 0.59 | 364 nm | 479 nm | 1.00 | 373 nm | 501 nm | 0.90 | 373 nm | 501 nm | 0.90 | pH insensitive | 86 GM | 780 nm | 95 GM | some cell death was observed | Φδ value from TP action spectrum ([6]; at 780 nm): approximately 90 GM; Uptake rate (time) in A549 cells [7]: 800 s
3 | cyanine-3-linked O-1-glycosylated glucose [Cy3-Glc-α, reference compound] | – | – | – | – | – | – | – | – | – | – | – | – | 545 nm | 555 nm | 0.01 | – | – | – | – | – | –
4 | O=[N+]([O-])c1ccc(NC2C(O)OC(CO)C(O)C2O)c2nonc12 [2-NBDG, 2-[N-(7-nitrobenz-2-oxa-1,3-diazol-4-yl)-amino]-2-deoxy-D-glucose] | – | – | – | – | – | – | – | – | – | – | – | – | – | – | – | – | – | – | – | – | λ(1)max, one-photon absorption maximum [8]: 465 nm; λflmax, one-photon emission maximum [8]: 540 nm
5 | COc1ccc(C[C@@H](O)c2cc(OC)c(OC)c(OC)c2)cc1O [Combrestastatin, combretastatin] | – | – | – | – | – | – | – | – | – | – | – | – | – | – | – | – | – | – | – | – | AG2 uptake by A549 ([9]; agent 2 μM, after 6 h): 70.2%; AG2 uptake by A549 ([9]; agent 2 μM, after 12 h): 53.2%
6 | CC(=O)O[C@H]1C(=O)[C@@]2(C)[C@H]([C@H](OC(=O)c3ccccc3)[C@]3(O)C[C@H](OC(=O)[C@H](O)[C@@H](NC(=O)c4ccccc4)c4ccccc4)C(C)=C1C3(C)C)[C@]1(OC(C)=O)CO[C@@H]1C[C@@H]2O [Taxol, taxol] | – | – | – | – | – | – | – | – | – | – | – | – | – | – | – | – | – | – | – | – | AG2 uptake by A549 ([10]; 6 h): 89.6%; AG2 uptake by A549 ([10]; 12 h): 69.5%; AG2 uptake of cancer tissue pretreated with agent ([3]; colon cancer tissue, agent 50 μM for 4 hrs in ACSF, depth 100 μm): much slower AG2 uptake than the untreated one; Cellular uptake of AG2 versus incubation time with agent ([9]; A549 cells incubated 1, 3, 6, 12, 24 h with agent): lower with longer incubation times; AG2 uptake by A549 ([9]; agent 49 nM (second line, r8), after 6 h): 96.7%; AG2 uptake by A549 ([9]; agent 49 nM (second line, r8), after 12 h): 81.8%; AG2 uptake by A549 ([9]; agent 9.8 μM, after 6 h): 69.5%; AG2 uptake by A549 ([9]; agent 9.8 μM, after 12 h): 50.7%
